In patent publication US20250085273A1, “NOVEL RAPID DRUG DISCOVERY FOR SEPSIS AND AGENTS FOR USE AS SEPSIS THERAPY” (priority 2023, published 2025):
Counter-ions that a name gives are not always drawn. Like-named read-outs stand apart in the source and are kept apart here.

Experiments:
Type in all cases: in vivo, Danio rerio
[1] = test system: 3-dpf Zebrafish Embryos Challenged with LPS (P. aeruginosa 60 μg/mL); settings: for Percent Rescue (Mort + Tail Edema): 3-dpf embryos, n=16; for Percent Rescue (Mort + Tail Edema) / 3 dpf Embryos Percent Rescue (Mort + Tail Edema) / rescue of tail edema and mortality (sepsis rescue rate) at 3-dpf: compound 10 μM; for 3 dpf Embryos Percent Rescue (Mort + Tail Edema): initial 3-dpf screen shown for reference
Procedure: Healthy, normally developing embryos collected from the adult AB zebrafish spawning events were treated with 75 μM of 1-phenyl 2-thiourea (PTU) in EM prior to 24 hours post fertilization (hpf) to block pigmentation formation (Karlsson et al, 2001). These embryos were then placed into an incubator at 28.5° C. until they reached 3-dpf. Embryos were then removed from the incubator and plated individually into the wells of 96 well plates containing 50 μL of EM.
A super stock of 120 μg/mL of P. aeruginosa LPS was made up in EM in a glass container. This stock was then used to make sub stocks of 120 μg/mL P. aeruginosa LPS (positive control) and 120 μg/mL P. aeruginosa LPS containing 20 μM of test drug in glass scintillation vials. Immediately after the sub stocks were made, the wells were dosed with either 50 μL of 120 μg/mL of P. aeruginosa, 120 μg/mL of P. aeruginosa with 20 μM of test drug, or EM (1:1 Dilution). Each 96 well plate had one LPS positive control (n=16), 4 different test drugs with P. aeruginosa LPS (n=16 per drug), and one negative control (n=16). Once the plates were dosed, they were covered with parafilm and placed into an incubator at 28.5° C. The plates were removed at 6- and 24-hours post exposure to be scored for tail edema and mortality. All 644 drugs evaluated for rescue from mortality and tail edema induced by P. aeruginosa LPS exposure as compared to LPS-treated controls after 24 hours of exposure.
3-dpf embryos were challenged with 60 μg/mL P. aeruginosa LPS in combination with single 10 μM concentration of each compound for 24 hours (n=16 fish per compound). […] Other 29 compounds exceeded 60% rescue of tail edema and mortality at 24 hours post exposure.

[2] = test system: 5-dpf zebrafish larvae challenged with P. aeruginosa LPS 60 μg/mL; settings: compound 10 μM; for 5 dpf Embryos Percent Rescue (Mort + Tail Edema): 5-dpf larvae
Excerpt: Confirmatory testing followed the same methods as the initial testing but used 5-dpf larvae instead of the 3-dpf larvae that were used for the initial screening because they were easier to handle and replicated the methods of Philip et al. (2017).
Next, follow-on 5-dpf screening was implemented to confirm initial screening with more larvae. Zebrafish swim faster at 5-dpf (requiring more time to load 96 plates), and all major organ systems are functioning at 5-dpf and thus determined as advantageous for follow-on confirmation.

[3] = test system: zebrafish (4 dpf pre-treated, LPS exposure at 5-dpf) challenged with P. aeruginosa LPS 60 μg/mL; settings: number of n = 16 fish
Procedure: Drugs identified with >80% rescue were subjected to additional testing. Drug pretreatment for 24 hours prior to LPS challenge was evaluated to determine if any prophylactic benefit could be realized with any of the top rescue drugs. The intent was to determine if drug pre-treatment might be used at the point of injury as a preventative therapeutic before the onset of infection and development of sepsis. Parallel groups of fish received a 24-hour drug pre-treatment or no drug pre-treatment prior to LPS challenge. For this test, 4 dpf PTU-treated zebrafish embryos were placed into 96 well plates containing 100 μL of EM. […] All plates were covered with parafilm and placed into an incubator at 28.5° C. for 24 hours. […] Once the plates were dosed, they were covered with parafilm and placed into an incubator at 28.5° C. The plates were removed at 6- and 24-hours post exposure and scored for tail edema and mortality. Once the 24-hour tail edema and mortality endpoints were collected, a neurobehavioral test was conducted as described in section 2.8.

[4] = P. aeruginosa LPS 60 μg/mL, 24 hours
[5] = 3-dpf, P. aeruginosa LPS 60 μg/mL, 24 hours
[6] = P. aeruginosa LPS 60 μg/mL, 24 hours, hydrochloride
[7] = 3-dpf, P. aeruginosa LPS 60 μg/mL, 24 hours, hydrochloride
[8] = 24-hour 10 μM drug pre-treatment

Molecule	Percent Rescue (Mort + Tail Edema) [1, 4] [%]	3 dpf Embryos Percent Rescue (Mort + Tail Edema) ([1]; P. aeruginosa LPS 60 μg/mL) [%]	5 dpf Embryos Percent Rescue (Mort + Tail Edema) [2] [%]	also measured
CNCC[C@H](Oc1cccc2ccccc12)c1cccs1 [Compound 386, Duloxetine (hydrochloride)]	50			
CC(C)(C)c1cc(NC(=O)Nc2ccc(-c3cn4c(n3)sc3cc(OCCN5CCOCC5)ccc34)cc2)no1 [Compound 598, Quizartinib (AC220)]	56			
Nc1ccc(S(=O)(=O)c2ccc(N)cc2)cc1 [Compound 155, Dapsone]	69	69	25	
COc1cc2ncnc(Nc3ccc(F)c(Cl)c3)c2cc1OCCCN1CCOCC1 [Compound 516, Gefitinib (ZD1839)]	50			
CN[C@H]1CC[C@@H](c2ccc(Cl)c(Cl)c2)c2ccccc21 [Compound 37, Sertraline (hydrochloride)]	88	88	31	
CN(C)[C@@H](CCOc1cccc2ccccc12)c1ccccc1 [Compound 156, Dapoxetine (hydrochloride)]	100	100	38	rescue of tail edema and mortality (sepsis rescue rate) at 3-dpf [1, 5]: 100%; rescue of tail edema and mortality (sepsis rescue rate) at 5-dpf [2]: 38%
CC(C)(C)c1ccc(C(O)CCCN2CCC(C(O)(c3ccccc3)c3ccccc3)CC2)cc1 (stereo not drawn) [Compound 44, Terfenadine]	75	75	0	pericardial edema observation ([1]; 3-dpf, 24 hours): had pericardial edemas; mortality (survival) in 3-dpf initial screen [1, 5]: alive at 24 hours
CN1CCc2c(c3ccccc3n2Cc2ccccc2)C1 [Compound 318, Mebhydrolin]	56			
Almotriptan (malate) [Compound 6]	63	63	63	
CC(C)(C(=O)O)c1ccc(C(O)CCCN2CCC(C(O)(c3ccccc3)c3ccccc3)CC2)cc1 (stereo not drawn) [Compound 137, Fexofenadine]				rescue of tail edema in 3-dpf initial screen ([1]; 3-dpf, P. aeruginosa LPS 60 μg/mL): did not rescue tail edema; mortality (survival) in 3-dpf initial screen [1, 5]: did rescue mortality
C[C@H]1N=C(N(C)C)N=C(N)N1 [Compound 317, Imeglimin (hydrochloride)]	50			
Cc1cc(Nc2ncc(Cl)c(Nc3ccccc3S(=O)(=O)C(C)C)n2)c(OC(C)C)cc1C1CCNCC1 [Compound 378, Ceritinib dihydrochloride]	75	75	38	
CCN(CC)CCNC(=O)c1c(C)[nH]c(/C=C2\C(=O)Nc3ccc(F)cc32)c1C [Compound 621, Sunitinib Malate]	94	94	100	rescue of tail edema and mortality (sepsis rescue rate) at 3-dpf [1, 5]: 88%; rescue of tail edema and mortality (sepsis rescue rate) at 5-dpf [2]: 100%
Gabexate (mesylate) [Compound 8]	88	88	31	
Alverine (citrate) [Compound 138]	69	69	38	
O=C(Nc1nc(-c2cc(Cl)cs2)c(N2CCN(C3CCCCC3)CC2)s1)c1cnc(N2CCC(C(=O)O)CC2)c(Cl)c1 [Compound 3, Avatrombopag (hydrochloride)]				Percent Rescue (Mort + Tail Edema) [1, 6]: 56%
CNCCc1ccccn1 [Compound 310, Betahistine]	56			

Molecule	Percent Rescue (Mort + Tail Edema) [1, 4] [%]	3 dpf Embryos Percent Rescue (Mort + Tail Edema) ([1]; P. aeruginosa LPS 60 μg/mL) [%]	5 dpf Embryos Percent Rescue (Mort + Tail Edema) [2] [%]	also measured
C[C@H](N)[C@H](O)c1ccc(O)c(O)c1 [Compound 10, Levonordefrin]	63	63	75	
Lumateperone (tosylate) [Compound 30]	75	75	19	
CN(C)CCOC(C)(c1ccccc1)c1ccc(Cl)cc1 (stereo not drawn) [Compound 157, Chlorphenoxamine]	50			
N[C@@H]1C[C@H]1c1ccccc1.N[C@@H]1C[C@H]1c1ccccc1.O=S(=O)(O)O [Compound 7, Tranylcypromine (hemisulfate)]	88	88	56	
CNS(=O)(=O)CCc1ccc2[nH]cc(C3CCN(C)CC3)c2c1 [Compound 438, Naratriptan (hydrochloride)]	50			
Cc1nc2n(c(=O)c1CCN1CCC(c3noc4cc(F)ccc34)CC1)CCCC2 [Compound 4, Risperidone]				rescue of tail edema and mortality (sepsis rescue rate) at 3-dpf [1, 5]: 6%
Bedaquiline fumarate [Compound 474]	94	94	0	
Cc1nc2n(c(=O)c1CCN1CCC(c3noc4cc(F)ccc34)CC1)CCCC2O (stereo not drawn) [Compound 61, Paliperidone]				rescue of tail edema and mortality (sepsis rescue rate) at 3-dpf [1, 5]: 6%
CCN(CC)CCNC(=O)c1c(C)[nH]c(/C=C2\C(=O)Nc3ccc(F)cc32)c1C [Compound 354, Sunitinib (Malate)]	88	88	100	rescue of tail edema and mortality (sepsis rescue rate) at 3-dpf [1, 5]: 88%; rescue of tail edema and mortality (sepsis rescue rate) at 5-dpf [2]: 100%
Clc1ccc(CCCOCCCN2CCCCC2)cc1 [Compound 126, Pitolisant hydrochloride]				rescue of tail edema and mortality (sepsis rescue rate) at 3-dpf [1, 7]: 38%
CCN(CC)CCNC(=O)c1c(C)[nH]c(/C=C2\C(=O)Nc3ccc(F)cc32)c1C.O=C(O)C[C@H](O)C(=O)O [Sunitnib (malate)]				24 hour Tail Edema, No-Drug Pretreatment ([3]; 10 μM drug with LPS 60 μg/mL, no 24-hour pre-treatment): 4 fish; 24 Hour Mortality and Tail Edema, Drug Pretreatment [3, 8]: 2 fish; 24 Hour Mortality, Drug Pretreatment [3, 8]: 1 fish; 24 hour Tail Edema, Drug Pretreatment ([3]; 24-hour 10 μM drug pre-treatment before LPS 60 μg/mL): 1 fish; 24 Hour Mortality and Tail Edema, No-Drug Pretreatment ([3]; no 24-hour pre-treatment): 5 fish; 24 Hour Mortality, No Drug Pretreatment ([3]; no 24-hour pre-treatment): 1 fish
O=C(Nc1nc(-c2cc(Cl)cs2)c(N2CCN(C3CCCCC3)CC2)s1)c1cnc(N2CCC(C(=O)O)CC2)c(Cl)c1 [Compound 31, Avatrombopag]	75	75	31	
Clc1ccc(CCCOCCCN2CCCCC2)cc1 [Compound 589, Pitolisant hydrochloride]				Percent Rescue (Mort + Tail Edema) [1, 6]: 56%; rescue of tail edema and mortality (sepsis rescue rate) at 3-dpf [1, 7]: 56%
CCN(CC)CC(=O)Nc1c(C)cccc1C [Compound 549, Lidocaine hydrochloride]	56			
CC(C)NCC(O)COc1cccc2[nH]ccc12 (stereo not drawn) [Compound 12, Pindolol]	56			
O=C(O)c1cc2ccccc2c(Cc2c(O)c(C(=O)O)cc3ccccc23)c1O.OCCOCCN1CCN(C(c2ccccc2)c2ccc(Cl)cc2)CC1 [Compound 207, Hydroxyzine (pamoate)]	50			
